According to patent US11440903B2, “Salt form and crystal form of compound as FGFR4 inhibitor and preparation method thereof” (GUANGDONG ZHONGSHENG PHARMACEUTICAL CO., LTD, priority 2017, dated 2022):

Assays:
Assay type in all cases: physicochemical
[1] = Solid stability test of the crystal forms (influence factors and acceleration tests; appearance, XRPD, HPLC content and impurities)
From the text: A sample of the crystal form A was placed on the bottom of a glass sample bottle, and spread to a thin layer. The sample stored under high temperature, high humidity, and acceleration conditions was placed in a bottle of which the mouth was packed with a pierced aluminum foil to ensure the sample to be sufficiently exposed to ambient air; the sample stored under light radiation conditions was placed at room temperature in a standing bottle of which the mouth was open, the sample was exposed to a light resource, and sampled for detection after being radiated by sufficient energy. Samples were taken and analyzed at various time points, and the test results were compared with the initial test results of 0 day, the inspection items included appearance, content and impurities, and the test results are shown in Table 9.
A sample of the crystal form B (10 mg) was placed on the bottom of a glass sample bottle, and spread to a thin layer. The sample stored under high temperature, high humidity, and acceleration conditions were placed in a bottle of which the mouth was packed with a pierced aluminum foil to ensure the sample to be sufficiently exposed to ambient air; the sample stored under light radiation conditions was placed at room temperature in a standing bottle of which the mouth was open, the sample was exposed to a light resource, and sampled for detection after being radiated by sufficient energy, the control sample stored in dark (open, the whole sample bottle was sealed with aluminum foil to keep the content in dark) and the sample stored under light radiation conditions were placed together to exclude environmental influence on the samples. Samples were taken and analyzed at various time points, and the test results were compared with the initial test results of 0 day, the inspection items included appearance, crystal form, content and impurities, the test results are shown in Table 10.
(§1) A sample of the crystal form C was taken and placed on the bottom of a glass sample bottle, and spread to a thin layer. The sample stored under high temperature, high humidity, and acceleration conditions was placed in a bottle of which the mouth was packed with a pierced aluminum foil to ensure the sample to be sufficiently exposed to ambient air; the sample stored under light radiation conditions was placed at room temperature in a standing bottle of which the mouth was open, the sample was exposed to a light resource, and sampled for detection after being radiated by sufficient energy. Samples were taken and analyzed at various time points, and the test results were compared with the initial test results of 0 day.
as §1, with “D” for “C”
A sample of the crystal form E (10 mg) was taken and placed on the bottom of a glass sample bottle, and spread to a thin layer. […]

[2] = Stability of the crystal form on stirring as suspension in solvent (40° C., 2 days)
Protocol: 30 mg of the compound represented by formula (I) was weighed and added into a glass flask, 400 μL acetonitrile-water (1:1) was added to form a suspension. A sample of the suspension was placed on a magnetic stirrer (40° C.) for a dark stirring experiment. The sample of the suspension was centrifuged after stirring at 40° C. for 2 days, and then the residual sample was dried in a vacuum drying oven (30° C.) overnight to give a crystal form A of the compound represented by formula (I). The XRPD pattern of the crystal form A of the compound represented by formula (I) is shown in FIG. 1, the DSC pattern is shown in FIG. 2, and the TGA pattern is shown in FIG. 3.
30 mg of the compound represented by formula (I) was weighed and added into a glass flask, and 400 μL ethyl acetate was added to form a suspension. A sample of the suspension was placed on a magnetic stirrer (40° C.) for dark stirring experiment. The sample of the suspension was centrifuged after stirring at 40° C. for 2 days, and then the residual sample was dried in a vacuum drying oven (30° C.) overnight. The crystal form was detected by XRPD to give a crystal form A of the compound represented by formula (I).
30 mg of the compound represented by formula (I) was weighed and added into a glass flask, and 400 μL methanol was added to form a suspension. A sample of the suspension was placed on a magnetic stirrer (40° C.) for dark stirring experiment. The sample of the suspension was centrifuged after stirring at 40° C. for 2 days, and then the residual sample was dried in a vacuum drying oven (30° C.) overnight to give a crystal form B of the compound represented by formula (I). The XRPD pattern of the crystal form B of the compound represented by formula (I) is shown in FIG. 4, the DSC pattern is shown in FIG. 5, and the TGA pattern is shown in FIG. 6.
50 mg of the compound represented by formula (I) was weighed and added into a 1.5 mL liquid vial, and 200 μL methanol was added thereto, the obtained mixture was homogeneously mixed under ultrasound. The dissolved sample was quickly centrifuged, and the supernatant was placed in a centrifuge tube, the mouth of the tube was packed with a pierced aluminum foil, and then the tube was placed in a fume cupboard for volatilization; the sample of the suspension was placed on a magnetic stirring heater (40° C.) for stirring (in dark), and quickly centrifuged after 2 days. The resultant solid was collected and dried at 30° C. in a vacuum drying oven overnight to give the crystal form C of the compound represented by formula (I). The XRPD pattern of the crystal form C of the compound represented by formula (I) is shown in FIG. 7, the DSC pattern is shown in FIG. 8, and the TGA pattern is shown in FIG. 9.
50 mg of the compound represented by formula (I) was weighed and added into a 1.5 mL liquid vial, and 200 μL ethanol was added thereto, and the obtained mixture was homogeneously mixed under ultrasound. The dissolved sample was quickly centrifuged, the supernatant was placed into a centrifuge tube, and the mouth of the tube was packed with a pierced aluminum foil, and placed in a fume cupboard for volatilization; the sample of the suspension was placed on a magnetic stirring heater (40° C.) for stirring (in dark), and quickly centrifuged after 2 days. The solid obtained as above was collected and dried at 30° C. in a vacuum drying oven overnight to give a crystal form D of the compound represented by formula (I). The XRPD pattern of the crystal form D of the compound represented by formula (I) is shown in FIG. 10, the DSC pattern is shown in FIG. 11, and the TGA pattern is shown in FIG. 12.
35 mg of the compound represented by formula (II) was weighed and added into a 1.5 mL liquid vial, and 400 μL methanol was added thereto, and the obtained mixture was homogeneously mixed under ultrasound. […]

[3] = Solubility test in biological media (FaSSIF, FeSSIF, SGF) and water, 37° C.; conditions: SGF and fasting or satiety state simulated intestinal fluid
Protocol: Step 1: Preparation of Control Solutions (0.2 mg/mL, calculated by free base)
2 mg the crystal form B of the compound represented by formula (I) (or 2.4 mg the crystal form E of the compound represented by formula (II)) as a control was precisely weighed and placed into a 40 mL glass vial, and a diluent (10 mL) was precisely added. The reaction solution was subjected to ultrasonic treatment for 20 min to sufficiently dissolve, then cooled to room temperature and shaked well. Two control solutions (STD #1, STD #2) were formulated in accordance with this method.
Step 2: Preparation of Linear Solutions
The control solution STD #1 of the crystal form B of the compound represented by formula (I) was 1×, 10×, 100×, 1000× and 2000× (free base LOQ) diluted, and designated as the linear solutions L1, L2, L3, L4 and L5; the control solution STD #1 of the crystal form E of the compound represented by formula (II) was 1×, 10×, 100× and 1000× (methanesulfonate LOQ) diluted, and designated as the linear solutions L1, L2, L3, L4.
Step 3: Solubility Test of the crystal form B of the compound represented by formula (I), the crystal form G of the compound represented by formula (III) and the crystal form E of the compound represented by formula (II) in biological media and water
4 samples (about 4 mg) of each of the crystal form B of the compound represented by formula (I), the crystal form E of the compound represented by formula (II), and the crystal form G of the compound represented by formula (III) were added into 12 glass vials (4 mL), respectively, and then 2 mL different biological media (FaSSIF, FeSSIF, SGF) and water were added into each compound respectively, then mixed homogeneously to form a suspension. The suspension was detected for its initial pH value. A magnet was added into the suspension, and placed on a magnetic stirring heater for stirring (at a temperature of 37° C., in dark). After stirring for 24 h, a sample was taken. The taken sample was quickly centrifuged, and the residual solid was detected by XRPD. The supernatant was detected for its pH value and diluted with a diluent into appropriate multiple, then measured with HPLC for its concentration.
FaSSIF: 1. 0.042 g sodium hydroxide, 0.3438 g sodium dihydrogen phosphate and 0.6186 g sodium chloride were weighed, added into 90 mL purified water, and homogeneously mixed, then, the mixture was adjusted with 1 N hydrochloric acid or 1 N sodium hydroxide to pH=6.5, and diluted into a constant volume of 100 mL with purified water; 2. 50 mL of the buffer described above was taken, and 0.224 g commercially available powder (Biorelevant.com) of FaSSIF/FeSSIF/FaSSGF was added thereto, the mixture was stirred to dissolve, and diluted with purified water to a constant volume of 100 mL.
FeSSIF: 1. 0.404 g sodium hydroxide, 0.865 g glacial acetic acid, and 1.1874 g sodium chloride were weighed, added into 90 mL purified water, and homogeneously mixed, then, the mixture was adjusted with 1 N hydrochloric acid or 1 N sodium hydroxide to pH=5.0, and diluted with purified water to a constant volume of 100 mL, 2. 50 mL of the buffer described above was taken, and 1.12 g commercially available powder (Biorelevant.com) of FaSSIF/FeSSIF/FaSSGF was added thereto, the mixture was stirred to dissolve, and diluted with purified water to a constant volume of 100 mL.
FaSSGF (SGF): 1. 0.2 g sodium chloride was weighed, added into 90 mL purified water, and mixed homogeneously, the mixture was adjusted with 1 N hydrochloric acid to pH=1.8, and diluted with purified water to a constant volume of 100 mL, and stood at room temperature.

[4] = Acceleration test (40° C./relative humidity of 75%, open), 5 days
[5] = Acceleration test (40° C./relative humidity of 75%, open), 10 days
[6] = High humidity (room temperature/relative humidity of 92.5%, open), 5 days
[7] = High humidity (room temperature/relative humidity of 92.5%, open), 10 days
[8] = High temperature (60° C., open), 5 days
[9] = High temperature (60° C., open), 10 days
[10] = Light radiation (total illumination: 1.2 × 10^6 Lux·hr), 5 days
[11] = Light radiation (total illumination: 1.2 × 10^6 Lux·hr), 10 days
[12] = conclusion of influence factors and acceleration tests

## C=CC(=O)N[C@H]1COC[C@H]1Nc1ncc(/C=C(\F)c2c(Cl)c(OC)cc(OC)c2Cl)cn1.CS(=O)(=O)O [Crystal Form F]
[1]; 0 day (initial)
  Appearance: White
  Content (%): 99.26%
  Crystal Form (XRPD): form F
  Total Impurities (%): 0.72%
[1]; [4]
  Appearance: White
[1]; [5]
  Appearance: White
  Content (%): 99.22%
  Crystal Form (XRPD): form F
  Total Impurities (%): 0.71%
[1]; [6]
  Appearance: White
[1]; [7]
  Appearance: White
  Content (%): 99.24%
  Crystal Form (XRPD): form F
  Total Impurities (%): 0.73%
[1]; [8]
  Appearance: White
[1]; [9]
  Appearance: White
  Content (%): 99.22%
  Crystal Form (XRPD): form F
  Total Impurities (%): 0.79%
[1]; [10]
  Appearance: White
[1]; [11]
  Appearance: White
  Content (%): 99.30%
  Crystal Form (XRPD): form F
  Total Impurities (%): 0.73%
[1]; [12]
  photostability (stability under light radiation), conclusion in words: good
  stability under acceleration conditions, conclusion in words: good
  stability under high humidity conditions, conclusion in words: good
  thermal stability (high temperature), conclusion in words: slight impurity generation
[2]; stirring in ethanol-water (1:1) at 40° C. for 2 days
  stability in the ethanol-water solution: substantially high stability

## C=CC(=O)N[C@H]1COC[C@H]1Nc1ncc(/C=C(\F)c2c(Cl)c(OC)cc(OC)c2Cl)cn1.CS(=O)(=O)O [compound represented by formula (II)]
[3]
  solubility in simulated gastric fluid (SGF) and simulated intestinal fluid (FaSSIF), in words: relatively good solubility

## C=CC(=O)N[C@H]1COC[C@H]1Nc1ncc(/C=C(\F)c2c(Cl)c(OC)cc(OC)c2Cl)cn1 [Crystal Form C]
[1]; 0 day (initial)
  Appearance: Off-white
  Content (%): 98.96%
  Crystal Form (XRPD): form C
  Total Impurities (%): 1.25%
[1]; [4]
  Appearance: Off-white
[1]; [5]
  Appearance: Off-white
  Content (%): 98.96%
  Crystal Form (XRPD): form C
  Total Impurities (%): 1.26%
[1]; [6]
  Appearance: Off-white
[1]; [7]
  Appearance: Off-white
  Content (%): 98.22%
  Crystal Form (XRPD): form C
  Total Impurities (%): 2.08%
[1]; [8]
  Appearance: Off-white
[1]; [9]
  Appearance: Off-white
  Content (%): 98.93%
  Crystal Form (XRPD): form C
  Total Impurities (%): 1.27%
[1]; [10]
  Appearance: Off-white
[1]; [11]
  Appearance: Off-white
  Content (%): 98.35%
  Crystal Form (XRPD): form C
  Total Impurities (%): 1.86%
[1]; [12]
  stability under acceleration conditions, conclusion in words: good
  thermal stability (high temperature), conclusion in words: good
[2]; stirring in methanol at 40° C. for 2 days
  stability in the methanol solution: substantially high stability

## C=CC(=O)N[C@H]1COC[C@H]1Nc1ncc(/C=C(\F)c2c(Cl)c(OC)cc(OC)c2Cl)cn1.O=S(=O)(O)O [compound represented by formula (III)]
[3]
  solubility in simulated gastric fluid (SGF) and simulated intestinal fluid (FaSSIF), in words: relatively good solubility
